Test systems include SW-620; U-251; HCT-15; UACC-257; SF-539; SNB-19; NCI-H23; ACHN; OVCAR-4; HCT-116; SK-OV-3; OVCAR-5; SF-295; HL-60; KM12.
What all share (assay): NCI anticancer screen, dose series, 48 h

15 molecules from ChEMBL document CHEMBL1201862, “PubChem BioAssay data set” (2004) can be followed below.

The structures appear in SMILES notation.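 The compound was tested at five concentrations on cells cultured in 96-well plates, with a 48-hour exposure period. The concentration for 50% growth inhibition is given as GI50.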 The source made the active and inactive calls. Cut-off read from the data, not from the text of the source: active = GI50 up to about 1.1 µM and inactive = higher.

As to `O=C(O)[C@H](NS(=O)(=O)c1ccc(F)cc1)c1ccccc1`, the GI50 in the test with SW-620 is > 100 µM (inactive); in the test with U-251, > 100 µM (inactive); in the test with HCT-15, over 100 µM; with UACC-257, > 100 µM (inactive); in the test on SF-539, > 100 µM (inactive); in the test with SNB-19, > 100 µM (inactive). In addition, the GI50 in the test on NCI-H23, with ACHN, in the test with OVCAR-4, in the test on HCT-116, with SK-OV-3 and in the test on OVCAR-5 was > 100 µM (inactive) in each case. In addition, the GI50 in the test with SF-295 was > 100 µM (inactive).

As to `COc1ccc(NC(=O)/C(=C/c2ccccc2)C(C)=O)cc1`, the GI50 was 16.2 µM (inactive) in the test on SW-620; 15.2 µM (inactive) in the test on U-251; 13.2 µM with HCT-15; 13.3 µM (inactive) in the test with UACC-257; 15.3 µM (inactive) in the test on SF-539; 16.2 µM (inactive) in the test on SNB-19. The GI50 with NCI-H23 was > 10 µM (inactive); in the test with HL-60 it was 3.39 µM (inactive); in the test with ACHN it was 20.7 µM (inactive); in the test on OVCAR-4, 11.6 µM (inactive); with KM12, 12.4 µM (inactive); in the test on SK-OV-3, 40.2 µM (inactive). Moreover, the GI50 was 19.6 µM (inactive) in the test with OVCAR-5 and 14.2 µM (inactive) in the test on SF-295.

As to `CC12CC(=O)NN=C1c1ccccc1C2` (stereo not given), the GI50 with SW-620 is > 100 µM (inactive); with U-251, > 100 µM (inactive); in the test with HCT-15 it was over 100 µM; with UACC-257, > 100 µM (inactive); in the test on SF-539, > 100 µM (inactive); in the test with SNB-19 it was > 100 µM (inactive). The GI50 in the test with NCI-H23, in the test on HL-60, in the test on ACHN, with KM12, with HCT-116 and in the test on SK-OV-3 was > 100 µM (inactive) in each case. Moreover, the GI50 in the test on OVCAR-5 and in the test with SF-295 was > 100 µM (inactive) throughout.

As to `COC(=O)C(=NNc1ccccc1[N+](=O)[O-])C(=O)OC`, the GI50 in the test on SW-620, in the test on U-251, in the test on UACC-257, in the test with SF-539, in the test with SNB-19 and in the test on NCI-H23 was > 100 µM (inactive) each time. The GI50 in the test with HL-60 is > 100 µM (inactive); in the test on ACHN it was > 100 µM (inactive); in the test with OVCAR-4, 88.1 µM (inactive); in the test with KM12 it was > 100 µM (inactive); in the test with HCT-116 it was > 100 µM (inactive); in the test with SK-OV-3, > 100 µM (inactive). For the same molecule, the GI50 in the test with OVCAR-5 and in the test with SF-295 was > 100 µM (inactive) each time.

For the molecule `NNC(=O)N/N=C(/CC1(O)C(=O)Nc2ccc(Br)cc21)c1ccccc1` (stereo not given), the GI50 in the test with SW-620 was 50 µM (inactive); in the test with U-251, > 10 µM (inactive); with HCT-15, 61.1 µM; in the test on UACC-257, 77.3 µM (inactive); with SF-539 it was 23.9 µM (inactive); with SNB-19, 11.8 µM (inactive). In addition, the GI50 in the test with NCI-H23 was 29 µM (inactive); with HL-60, 21.9 µM (inactive); with ACHN, 24.3 µM (inactive); in the test on KM12 it was 25.7 µM (inactive); in the test with HCT-116 it was 27.9 µM (inactive); in the test with SK-OV-3, 40.2 µM (inactive). Moreover, the GI50 in the test with SF-295 is 38.6 µM (inactive).

With `NC(=O)c1c(-c2ccccc2)c(-c2ccccc2)cc2c(=O)c3ccccc3[nH]c12`, the GI50 in the test on SW-620 is 37.1 µM (inactive); in the test on U-251 it was 31.7 µM (inactive); in the test with HCT-15, 29.8 µM; in the test with UACC-257, 40.6 µM (inactive); with SF-539, 17.5 µM (inactive); in the test on SNB-19, 21 µM (inactive). For the same molecule, the GI50 with NCI-H23 is 17.5 µM (inactive); in the test with ACHN, 16.4 µM (inactive); in the test with OVCAR-4, 12.5 µM (inactive); in the test on KM12, 21.8 µM (inactive); with HCT-116 it was 14.4 µM (inactive); with SK-OV-3, 25.3 µM (inactive). In addition, the results for the GI50 in the test with OVCAR-5 and in the test with SF-295 were 65.8 µM (inactive) and 40.4 µM (inactive), respectively.

As for `COc1cc2cccc(/N=C\c3cccc(OC)c3OC(C)C)c2cc1OC`, the GI50 in the test on SW-620 was 21 µM (inactive); in the test with U-251, 19.7 µM (inactive); with UACC-257 it was 20.8 µM (inactive); in the test on NCI-H23 it was 23.4 µM (inactive); in the test with ACHN, 36.6 µM (inactive); with OVCAR-4 it was 18.7 µM (inactive). For the same molecule, the GI50 was 19 µM (inactive) with KM12, 25.2 µM (inactive) in the test with SK-OV-3, > 100 µM (inactive) with OVCAR-5 and 19 µM (inactive) in the test with SF-295.

Turning to `COc1ccc([N+]2=NC(c3ccc([N+](=O)[O-])cc3)=NN(c3ccccc3)C2)cc1`, the GI50 is 68.4 µM (inactive) in the test with SW-620; 37.3 µM (inactive) with U-251; 24.8 µM with HCT-15; 30.1 µM (inactive) with UACC-257; 71.9 µM (inactive) in the test with SNB-19; 55.8 µM (inactive) in the test with NCI-H23. Moreover, the GI50 is 18.6 µM (inactive) in the test on HL-60; 42.5 µM (inactive) with ACHN; 22.6 µM (inactive) in the test on OVCAR-4; 46 µM (inactive) with HCT-116; > 100 µM (inactive) in the test on OVCAR-5; > 10 µM (inactive) with SF-295.

For `Cc1cccc(-n2c(N)c(-c3nc4ccccc4[nH]3)sc2=S)c1`, the GI50 is 31.4 µM (inactive) in the test with SW-620; 21.8 µM (inactive) with U-251; 20.7 µM with HCT-15; 28.6 µM (inactive) in the test on UACC-257; 20.4 µM (inactive) with SF-539; 36.6 µM (inactive) with SNB-19. In addition, the GI50 with NCI-H23 was 49.8 µM (inactive); in the test on HL-60 it was 26.5 µM (inactive); in the test with ACHN, 23.9 µM (inactive); in the test on OVCAR-4, 43.4 µM (inactive); in the test on KM12 it was 22 µM (inactive); with SK-OV-3, 47.9 µM (inactive). In addition, the GI50 with OVCAR-5 is 55.1 µM (inactive); in the test with SF-295 it was 28.1 µM (inactive).

Consider `N=C(N)NS(=O)(=O)c1ccc(NC(=O)c2cccc3cc4ccccc4nc23)cc1`, for which the GI50 was 66.8 µM (inactive) with SW-620; 87.7 µM (inactive) in the test with U-251; over 100 µM with HCT-15; > 100 µM (inactive) in the test with UACC-257; 25.5 µM (inactive) with SF-539; 9.79 µM (inactive) in the test with SNB-19. Further, the GI50 with NCI-H23 was > 100 µM (inactive); in the test on ACHN, 93.8 µM (inactive); in the test on OVCAR-4, 28 µM (inactive); in the test with KM12 it was 30.8 µM (inactive); with HCT-116, 19.3 µM (inactive); in the test on SK-OV-3, > 100 µM (inactive). Besides, the GI50 in the test on OVCAR-5 and with SF-295 was > 100 µM (inactive) in each case.

As for `CC(C)=CC(=O)CC(=O)C(=O)Nc1ccc(C)c(C)c1`, the GI50 in the test with SW-620 was > 100 µM (inactive); in the test with U-251, > 100 µM (inactive); in the test with HCT-15 it was over 100 µM; with UACC-257 it was > 100 µM (inactive); in the test on SF-539 it was > 100 µM (inactive); in the test with SNB-19, > 100 µM (inactive). Further, the GI50 with NCI-H23, in the test with HL-60, in the test on ACHN, with KM12, in the test on HCT-116 and in the test with SK-OV-3 was > 100 µM (inactive) each time. Besides, in the test on SF-295, the GI50 was > 100 µM (inactive).

`O/N=C1/C(=C/c2ccc(OCc3ccccc3)cc2)CCCC1C(NO)c1ccc(OCc2ccccc2)cc1` (stereo not given): the GI50 in the test on SW-620 is 17.4 µM (inactive); in the test with U-251 it was 10.5 µM (inactive); with HCT-15 it was 6.24 µM; in the test with UACC-257 it was 10 µM (inactive); in the test on SF-539, 24.9 µM (inactive); in the test on SNB-19 it was 80.9 µM (inactive). Also, the GI50 is 12.7 µM (inactive) in the test with NCI-H23; 5.57 µM (inactive) with HL-60; 17 µM (inactive) in the test with ACHN; 6.41 µM (inactive) in the test on OVCAR-4; 24.2 µM (inactive) in the test with KM12; 8.97 µM (inactive) with HCT-116. For the same molecule, the GI50 with SK-OV-3 and with OVCAR-5 was > 100 µM (inactive) each time.

In the case of `C/C=N\N1C(=O)c2ccccc2C1=O`, the GI50 in the test on SW-620 was > 100 µM (inactive); with HCT-15 it was over 100 µM; with UACC-257, > 100 µM (inactive); in the test on SF-539, > 100 µM (inactive); with SNB-19, > 100 µM (inactive); in the test on NCI-H23, > 100 µM (inactive). Besides, the GI50 in the test with HL-60, in the test with ACHN, in the test with OVCAR-4, in the test on KM12, in the test with HCT-116 and in the test on OVCAR-5 was > 100 µM (inactive) each time. In the test on SF-295, the GI50 was > 100 µM (inactive).

For the molecule `CC(=O)Nc1[nH]n(C)c(=O)c1-c1nnc(C)s1`, the GI50 with SW-620 is > 100 µM (inactive); with U-251 it was > 100 µM (inactive); in the test on HCT-15, over 100 µM; in the test on UACC-257, > 100 µM (inactive); in the test with SF-539, > 100 µM (inactive); in the test with SNB-19 it was > 100 µM (inactive). The GI50 in the test with NCI-H23, in the test on HL-60, in the test with ACHN, with OVCAR-4, in the test on KM12 and in the test on HCT-116 was > 100 µM (inactive) each time. Further, the GI50 with SK-OV-3 and in the test with OVCAR-5 was > 100 µM (inactive) in each case.

As to `CCCN(CCC)C(=O)Cc1c2n(c3ccccc13)Cc1ccccc1-2`, the GI50 was > 100 µM (inactive) in the test with SW-620; > 100 µM (inactive) with U-251; over 100 µM in the test with HCT-15; > 100 µM (inactive) in the test with UACC-257; > 100 µM (inactive) in the test with SF-539; > 100 µM (inactive) with SNB-19. For the same molecule, the GI50 was 45.7 µM (inactive) in the test on NCI-H23; 28.8 µM (inactive) in the test on HL-60; 12 µM (inactive) in the test on ACHN; 49.5 µM (inactive) in the test with OVCAR-4; > 100 µM (inactive) in the test with KM12; 28.8 µM (inactive) in the test with HCT-116. Besides, the GI50 was > 100 µM (inactive) with SK-OV-3 and 33.8 µM (inactive) with SF-295.
